Patent US20140228423A1, “BIOMARKERS AND THERAPY FOR CANCER” (BAYLOR COLLEGE OF MEDICINE, priority 2011, published 2014)

What was measured:
[1] = system: Dicer-Pten DKO mouse cancer cell lines; assay: Cell cycle analysis (PI, flow cytometry) after miR-34c transfection; type: cell-based; conditions: 48 hours after miR-34c transfection
Procedure: (§1) FIG. 13A is a cell viability assay. Dicer-Pten DKO mouse cancer cell lines were transfected with miR-34c followed by cell viability assay in 48 hours using CellTiter-Glo assay. FIG. 13B is cell cycle analysis. Forty-eight hours after miR-34c transfection, Dicer-Pten DKO mouse cancer cell lines were fixed in cold 70% ethanol and stained with PI. Cell cycle profiles were determined by flow cytometry and analyzed by flowjo.

OVCAR8 = assay: Lentiviral expression of miR-34c in OVCAR8: proliferation (CellTiter-Glo) and cell cycle (PI flow cytometry); type: cell-based, human
Procedure: (§2) FIG. 10. Drug and miRNA mimic effects on ovarian cancer cell viability (A-C) and proliferation (D). OVCAR8 cancer cells were incubated for 48 hours in the presence of YM155 (A) or everolimus (B) and assayed for cell viability. C. Three independent PTEN/DICER DKO mouse serous carcinoma cell lines were transfected with miRNA control (miR-Ctrl) or miR-34c mimics and assayed for cell viability 48 hours later. D. OVCAR8 cells were infected with lentivirus expressing miR-Ctrl or miR-34c and assayed for cell number. *, P<0.05; **, P<0.005; ***, P<0.0005
In FIG. 16A, OVCAR8 infected with miR-34c or control lentivirus were seeded onto 96-well plates for proliferation assay measured by CellTiter-Glo assay. In FIG. 16B, five days after miR-34c or control lentivirus infection, cells were fixed in cold 70% ethanol and stained with PI. Cell cycle profiles were determined by flow cytometry and analyzed by flowjo.

[2] = system: Dicer-Pten DKO mouse cancer cell line; assay: QPCR analysis of miR-34c downstream genes after miR-34c mimic transfection; type: cell-based
Text: In FIG. 14, miR-34c inhibits cyclinE-CDK2 complex. Analysis of some of miR-34c downstream genes is shown. QPCR analysis showing relative quantity of CDK2 (A), CCNE2 (B) and CDKN1C(C) after miR-34c mimic transfection in Dicer-Pten DKO mouse cancer cell line.

[3] = system: PTEN/DICER DKO primary serous cancer cell lines; assay: Microarray analysis (QPCR follow-up) of gene expression after miR-34c mimic transfection; type: cell-based, mouse
Procedure: To characterize the roles of miR-34c in regulating major cancer and cell cycle pathways, mimics were transfected into three independent PTEN/DICER DKO primary serous cancer cell lines and the human OVCAR8 serous cancer cell line and assayed for cell viability and cell proliferation (FIG. 5C, D) and microarray analysis was performed, with followup QPCR confirmation. […] The effects were examined of miR-34c on major pathway genes that contain miR-34c binding sites in their 3′UTR sequences as well as pathways in which these proteins lie. […] These findings are especially relevant to cancer treatment since mutations in TOP2A are associated with drug resistance, and TOP2A is the target for several chemotherapeutic agents.

[4] = system: Dicer-Pten DKO mouse cancer cell lines; assay: Cell viability (CellTiter-Glo) of Dicer-Pten DKO mouse cancer cell lines after miRNA mimic transfection or everolimus; type: cell-based; conditions: for sensitivity of cells (anti-proliferative, secondary to G1 arrest, and pro-apoptotic effects): Dicer/Pten double null line from primary mouse serous cancer, everolimus 0.8 uM, 48 h, alone and in combination; for cell viability and proliferation after miR-34c mimic delivery: mouse and human serous cancer cell lines (three PTEN/DICER DKO lines, OVCAR8)
Procedure: FIG. 4. Activation of the PI3K pathway in Dicer/Pten DKO mice and effects of mir34c and everolimus on a Dicer/Pten DKO cell line. A, Western blot analysis of DKO fallopian tube tumors showing activation of AKT signaling compared with control fallopian tubes. B, A Dicer/Pten DKO cell line was transfected with miR-34c mimic or a control (miR-Ctrl), treated with everolimus (0.8 uM) or without (DMSO), and examined 48 h later for the effects on cell viability.
To functionally evaluate the roles of miR34c and the mTOR inhibitor everolimus in serous cancers, the inventors first generated 32 cell lines from primary cancers (5 lines), metastatic lesions (11 lines), and ascites fluid (16 lines) of independent Dicer/Pten DKO mice. The effects were analyzed of everolimus and miR-34c mimic alone and in combination on a confirmed Dicer/Pten double null cell line derived from a primary mouse serous cancer. […] Based on the studies, there are the following considerations: 1) MiR-34c and additional miRNAs function to suppress the development of high grade serous carcinomas and the […], and/or 2) Simultaneous pharmacological targeting of mTOR and pathways downstream of miR-34c and other miRNAs leads to therapies to eradicate high-grade serous carcinomas.
Dicer-Pten DKO mouse cancer cell line DKO-1 were transfected with various miRNA mimics including miR-31, miR-100, let-7b, miR-34c or a miRNA control (miR-Ctrl). Cell viability was measured by ATP quantitation-based CellTiter-Glo assay 48 hours after transfection.
as §1

[5] = system: mouse serous cancer cell lines and the human serous cancer line OVCAR8; assay: Treatment of serous cancer cell lines with YM155 or everolimus; type: cell-based
Text: Well-known as an apoptosis inhibitor, survivin has been identified to contribute to nearly every aspect of cancer from onset to outcome (Altieri, 2008; Martinelli et al., 2006). Nearly all serous, endometrioid, and poorly-differentiated ovarian cancers express surviving (Cohen et al., 2003), the levels of survivin correlate with poor prognostic parameters (Cohen et al., 2003), high levels of survivin are associated with taxol/platinum resistance (Zaffaroni et al., 2002), and women with PTEN-negative/survivin-positive ovarian cancers have the worst prognosis (Sui et al., 2006). […] Based on these findings, the inventors treated mouse serous cancer cell lines and the human serous cancer line OVCAR8 with YM155 or everolimus, an inhibitor of mTOR (FIG. 5A, B). […] These findings indicate that YM155 and everolimus can be used to identify small molecules that synergize with the compounds to eradicate high-grade serous carcinomas in women.

OVCAR8 cells [6] = assay: High-throughput screen of Prestwick Chemical Library with or without YM155
Procedure: High-throughput screen for drugs that synergize with YM155. […] Digitonin (0.8 mg/ml) was used as a positive control for ˜100% cell death. […] The relative synergy for each drug was then calculated by subtracting measured cell survival of combinatorial treatment from the calculated c value.
To identify additional small molecules that synergize with YM155, a small library screen was performed.

OVCAR8 cells [7] = assay: QPCR follow-up of YM155-treated versus DMSO-treated OVCAR8 cells; type: cell-based, human; conditions: OVCAR8, 6 hours
Text: (§3) Using Illumina gene expression analysis and QPCR followup, YM155-treated cells were compared with DMSO vehicle treated cells. […] DDIT3 (a.k.a., CHOP) is a proapoptotic protein whose induction is a hallmark of ER stress induced apoptosis (Wang et al., 2010). […] HSP72 has strong cytoprotective effect by functioning as a molecular chaperone in cytosolic protein folding, transport, and degradation (Morimoto et al., 1997; Tavaria et al., 1996), and as an inhibitor of cellular apoptosis (Gamido et al., 2003; Samali and Orrenius, 1998). In addition, HSP72 interacts with ER stress sensor protein IRE1a thereby enhancing IREla-XBP1 signaling at the ER and promoting adaptation to ER stress and cell survival (Gupta et al., 2010). HSP72 is normally expressed at low levels, and is induced upon exposure to environmental stress to exert its cytoprotective effect. However, in cancer, HSP72 is constitutively expressed in many cancer cell lines and biopsies, and its expression correlates with poor prognosis (Gabai et al., 2009). HSP72 provides a selective advantage to cancer cells by suppressing default senescence via p53-dependent and p53-independent pathways (Yaglom et al., 2007). Thus, YM155 acutely suppresses HSPA1A and HSPA1B, indicating a novel mechanism which may contribute directly to the anti-cancer effect of YM155.

OVCAR8 cells [8] = assay: Cell viability of OVCAR8 cells after 48 hours with drug (dose response); type: cell-based; conditions: Homo sapiens, OVCAR-8; 48-hr treatment of OVCAR8 cells
Procedure: as §2
FIG. 17. Dose response curve of YM155 after 48-hr treatment of OVCAR8 cells.
Well-known as an apoptosis inhibitor, survivin has been identified to contribute to nearly every aspect of cancer from onset to outcome (Altieri, 2008; Martinelli et al., 2006). Nearly all serous, endometrioid, and poorly-differentiated ovarian cancers express surviving (Cohen et al., 2003), the levels of survivin correlate with poor prognostic parameters (Cohen et al., 2003), high levels of survivin are associated with taxol/platinum resistance (Zaffaroni et al., 2002), and women with PTEN-negative/survivin-positive ovarian cancers have the worst prognosis (Sui et al., 2006). […] Based on these findings, the inventors treated mouse serous cancer cell lines and the human serous cancer line OVCAR8 with YM155 or everolimus, an inhibitor of mTOR (FIG. 5A, B). […]

OVCAR8 cells [9] = assay: Illumina gene expression analysis of YM155-treated versus DMSO-treated OVCAR8 cells; type: cell-based, human; conditions: OVCAR8, 6 hours
Procedure: as §3, with “To characterize the early targets of YM155 in cancer cells, the ovarian cancer cell line OVCAR8 was treated acutely for 6 hours with YM155 (10 nM). Using” for “Using”

[10] = system: ovarian cancer cell lines and a pancreatic cancer cell line; assay: Cell Titer Glo viability with YM155, parthenolide or both for 48 hours; conditions: single agents at levels giving about half inhibition, and their combination
[11] = transient transfection, Dicer-Pten DKO cell lines

## miR-34c mimic: mimic of miR-34c, mature sequence AGGCAGUGUAGUUAGCUGAUUGC (SEQ ID NO:2); also delivered by lentivirus (listed as RNA, chemistry not given here)
[1]
  cell cycle profile: cell cycle arrest in G1 phase
OVCAR8; five days after lentivirus infection, OVCAR8
  cell cycle profile: arresting cancer cells in G1 phase
OVCAR8; lentiviral expression of miR-34c in OVCAR8
  cell proliferation: inhibits cell proliferation
[2]
  CDK2 relative quantity: down regulating
  CDKN1C relative quantity: up regulating
  cyclinE (CCNE2) relative quantity: down regulating
[3]; by the miR-34c mimic
  suppression of TOP2A: 11.7 fold
[3]; gene CCNE2, predicted miR-34c binding site
  Fold Change miR-34c mimic: CCNE2: −4.6
[3]; gene CDC6, predicted miR-34c binding site
  Fold Change miR-34c mimic: CDC6: −5.5
[3]; gene CDCA8, predicted miR-34c binding site
  Fold Change miR-34c mimic: CDCA8: −9.6
[3]; gene CDK2
  Fold Change miR-34c mimic: CDK2: −3.4
[3]; gene CDT1
  Fold Change miR-34c mimic: CDT1: −6.3
[3]; gene INCENP
  Fold Change miR-34c mimic: INCENP: −4.5
[3]; gene MCM5, predicted miR-34c binding site
  Fold Change miR-34c mimic: MCM5: −18.7
[3]; gene MDM2
  Fold Change miR-34c mimic: MDM2: 1.0
[3]; gene MRVI1
  Fold Change miR-34c mimic: MRVI1: 10.2
[3]; gene PBK
  Fold Change miR-34c mimic: PBK: −5.7
[3]; gene Survivin
  Fold Change miR-34c mimic: Survivin: −4.8
[3]; gene TOP2A
  Fold Change miR-34c mimic: TOP2A: −11.7
[3]; miR-34c mimic
  upregulation of MRVI1: 10.2 fold
[3]; upon delivery of miR-34c
  downregulation of direct targets MCM5, CDC6, CCNE2 and CDCA8: 4.6-18.7 fold
[4]
  sensitivity of cells (anti-proliferative, secondary to G1 arrest, and pro-apoptotic effects): exquisitely sensitive
  cell viability and proliferation after miR-34c mimic delivery: dramatic effect
[4]; Dicer/Pten serous ovarian cancer model
  suppression of mouse and human ovarian cancer cell viability among miRNAs tested: the only miRNA to suppress
[4]; listed as miR-34c
  cell viability and proliferation after miR-34c mimic delivery: reduced cell viability
[4]; [11]
  apoptosis: induction of apoptosis
  cell growth: growth inhibitory effect

## CO[C@H]1C[C@@H]2CC[C@@H](C)[C@@](O)(O2)C(=O)C(=O)N2CCCC[C@H]2C(=O)O[C@H]([C@H](C)C[C@@H]2CC[C@@H](OCCO)[C@H](OC)C2)CC(=O)[C@H](C)/C=C(\C)[C@@H](O)[C@@H](OC)C(=O)[C@H](C)C[C@H](C)/C=C/C=C/C=C/1C [everolimus, reference compound]
[4]
  sensitivity of cells (anti-proliferative, secondary to G1 arrest, and pro-apoptotic effects): exquisitely sensitive
[5]
  sensitivity of the tumors (cell viability): micromolar levels

## C[C@@H]1CC[C@@]2(OC1)O[C@H]1[C@@H](O)[C@H]3[C@@H]4CC[C@H]5C[C@@H](O[C@@H]6O[C@H](CO)[C@H](O[C@@H]7O[C@H](CO)[C@@H](O)[C@H](O[C@@H]8OC[C@@H](O)[C@H](O)[C@H]8O)[C@H]7O[C@@H]7O[C@H](CO)[C@H](O)[C@H](O[C@@H]8O[C@H](CO)[C@@H](O)[C@H](O)[C@H]8O)[C@H]7O)[C@H](O)[C@H]6O)[C@H](O)C[C@]5(C)[C@H]4CC[C@]3(C)[C@H]1[C@@H]2C [Digitonin]
OVCAR8 cells [6]; 0.8 mg/ml, positive control
  cell death: ~100%

## COc1cc(/C=C/C(=O)N2CCC=CC2=O)cc(OC)c1OC [Piperlongumine]
OVCAR8 cells [6]; concentration of 6.3 mM
  cell survival: 10 % of the control

## COCCn1c2c([n+](Cc3cnccn3)c1C)C(=O)c1ccccc1C2=O [YM155, sepantronium bromide]
OVCAR8 cells [7]
  Fold Change YM155 (30 nM)/DMSO (QPCR): ATF3: 11.1
  Fold Change YM155 (30 nM)/DMSO (QPCR): BIRC5 (Survivin): −1.1
  Fold Change YM155 (30 nM)/DMSO (QPCR): DDIT3: 3.6
  Fold Change YM155 (30 nM)/DMSO (QPCR): DDIT4: 10.6
  Fold Change YM155 (30 nM)/DMSO (QPCR): HERPUD1: 3.1
  Fold Change YM155 (30 nM)/DMSO (QPCR): HSPA1A: −7.5
  Fold Change YM155 (30 nM)/DMSO (QPCR): HSPA1B: −4.4
  Fold Change YM155 (30 nM)/DMSO (QPCR): TRIB3: 2.0
OVCAR8 cells [8]
  GI50: 4.6 nM
OVCAR8 cells [9]
  Fold Change YM155 (10 nM)/DMSO (Array): ATF3: 2.2
  Fold Change YM155 (10 nM)/DMSO (Array): BIRC5 (Survivin): −1.3
  Fold Change YM155 (10 nM)/DMSO (Array): DDIT3: 3.8
  Fold Change YM155 (10 nM)/DMSO (Array): DDIT4: 5.6
  Fold Change YM155 (10 nM)/DMSO (Array): HERPUD1: 2.2
  Fold Change YM155 (10 nM)/DMSO (Array): HSPA1A: −2.6
  Fold Change YM155 (10 nM)/DMSO (Array): HSPA1B: −2.6
  Fold Change YM155 (10 nM)/DMSO (Array): TRIB3: 2.6
[10]
  inhibition of cancer cell viability: ~50%
OVCAR8 cells [6]; Homo sapiens, OVCAR-8, read-out: Cell viability
  viability at 0.003 µM: 64.3%
